Test results reported in US10894817B2, “Fatty acid modified urocortin-2 analogs for the treatment of diabetes and chronic kidney disease” (priority 2016, dated 2021).
Starred links: 1 amine or outer side, 2 acyl side, 3 side chain; linkers in the order of their positions; H or OH if unused. Non-standard residues stand in square brackets, D forms with d. Residues, ends and D or L forms follow the SMILES beside them. Groups on a side chain read outwards from the residue. *: point of attachment. C20 diacid = O=C(O)CCCCCCCCCCCCCCCCCCC(=O)*; C18 diacid = O=C(O)CCCCCCCCCCCCCCCCC(=O)*; γGlu = O=C(O)[C@H](CCC(=O)[*:2])N[*:1]; Palmitoyl = CCCCCCCCCCCCCCCC(=O)*; NMeI = CC[C@H](C)[C@H](NC)C(=O)O; AEEA = NCCOCCOCC(=O)O

Target: T1, human CRHR2b (Homo sapiens, UniProt Q13324)
T1 construct: expressed in transfected cells; host or cells: Chinese Hamster Ovary (CHO) cells, transient transfection
T1 sequence (Q13324 1-438 isoform Q13324-2): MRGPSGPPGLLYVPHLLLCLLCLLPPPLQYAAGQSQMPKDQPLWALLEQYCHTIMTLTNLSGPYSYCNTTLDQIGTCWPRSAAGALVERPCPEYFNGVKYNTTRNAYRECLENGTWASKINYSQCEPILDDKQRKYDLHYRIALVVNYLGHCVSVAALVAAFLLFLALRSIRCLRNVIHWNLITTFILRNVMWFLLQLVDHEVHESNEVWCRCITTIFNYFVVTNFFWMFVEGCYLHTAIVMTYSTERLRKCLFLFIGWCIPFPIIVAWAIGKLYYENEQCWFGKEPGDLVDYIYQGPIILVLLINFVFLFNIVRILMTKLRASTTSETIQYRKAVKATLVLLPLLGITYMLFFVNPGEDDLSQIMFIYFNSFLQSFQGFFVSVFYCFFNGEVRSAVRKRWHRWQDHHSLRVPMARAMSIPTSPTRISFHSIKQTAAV
Test: human CRHR2b cell-based cAMP assay
Details: cAMP assay; Table 26, compounds of Example 9; read-out: hCRHR2b Average EC50
How it was run: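 ED50 values are means ± SEM over several runs, curve-fitted from cAMP in pmol, calibrated against unlabeled-cAMP standards. Detection was HTRF competition, ratio 665/620 nm, after 30 min agonist exposure at 37 °C.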

SMILES	EC50 [nM]
CC[C@H](C)[C@H](NC)C(=O)N[C@H](C(=O)N[C@@H](CC(C)C)C(=O)N[C@@H](CO)C(=O)N[C@@H](CC(C)C)C(=O)N[C@@H](CC(=O)O)C(=O)N[C@H](C(=O)N1CCC[C@H]1C(=O)N[C@H](C(=O)NCC(=O)N[C@@H](CC(C)C)C(=O)N[C@@H](CC(C)C)C(=O)N[C@@H](CCC(N)=O)C(=O)N[C@H](C(=O)N[C@@H](CC(C)C)C(=O)N[C@@H](CC(C)C)C(=O)N[C@@H](CCC(=O)O)C(=O)N[C@@H](CCC(N)=O)C(=O)N[C@@H](CCC(=O)O)C(=O)N[C@@H](CCCCN)C(=O)N[C@@H](CCC(N)=O)C(=O)N[C@@H](CCC(=O)O)C(=O)N[C@@H](CCCCN)C(=O)N[C@@H](CCC(=O)O)C(=O)N[C@@H](CCCCN)C(=O)N[C@@H](CCC(N)=O)C(=O)N[C@@H](CCC(N)=O)C(=O)N[C@@H](C)C(=O)N[C@@H](CCCCNC(=O)CC[C@H](NC(=O)COCCOCCNC(=O)COCCOCCNC(=O)CC[C@H](NC(=O)CC[C@H](NC(=O)CCCCCCCCCCCCCCCCCCC(=O)O)C(=O)O)C(=O)O)C(=O)O)C(=O)N[C@H](C(=O)N[C@@H](CC(N)=O)C(=O)N[C@@H](C)C(=O)N[C@@H](CCC(N)=O)C(=O)N[C@H](C(=O)N[C@@H](CC(C)C)C(=O)N[C@@H](C)C(=O)N[C@@H](CCC(N)=O)C(=O)N[C@H](C(N)=O)C(C)C)[C@@H](C)CC)[C@@H](C)O)[C@@H](C)CC)[C@@H](C)CC)C(C)C)C(C)C [Compound 60] (H-[NMeI]VLSLDVPIGLLQILLEQEKQEKEKQQAK([γGlu-AEEA-AEEA-γGlu-γGlu-C20 diacid])TNAQILAQV-NH2)	2.55
CC[C@H](C)[C@H](N)C(=O)N[C@H](C(=O)N[C@@H](CC(C)C)C(=O)N[C@@H](CO)C(=O)N[C@@H](CC(C)C)C(=O)N[C@@H](CC(=O)O)C(=O)N[C@H](C(=O)N1CCC[C@H]1C(=O)N[C@H](C(=O)NCC(=O)N[C@@H](CC(C)C)C(=O)N[C@@H](CC(C)C)C(=O)N[C@@H](CCC(N)=O)C(=O)N[C@H](C(=O)N[C@@H](CC(C)C)C(=O)N[C@@H](CC(C)C)C(=O)N[C@@H](CCC(=O)O)C(=O)N[C@@H](CCC(N)=O)C(=O)N[C@@H](CCC(=O)O)C(=O)N[C@@H](CCCCN)C(=O)N[C@@H](CCC(N)=O)C(=O)N[C@@H](CCC(=O)O)C(=O)N[C@@H](CCCCN)C(=O)N[C@@H](CCC(=O)O)C(=O)N[C@@H](CCCCN)C(=O)N[C@@H](CCC(N)=O)C(=O)N[C@@H](CCC(N)=O)C(=O)N[C@@H](C)C(=O)N[C@@H](CCCCNC(=O)COCCOCCNC(=O)COCCOCCNC(=O)CC[C@H](NC(=O)CC[C@H](NC(=O)CCCCCCCCCCCCCCCCC(=O)O)C(=O)O)C(=O)O)C(=O)N[C@H](C(=O)N[C@@H](CC(N)=O)C(=O)N[C@@H](C)C(=O)N[C@@H](CCC(N)=O)C(=O)N[C@H](C(=O)N[C@@H](CC(C)C)C(=O)N[C@@H](C)C(=O)N[C@@H](Cc1c[nH]cn1)C(=O)N[C@H](C(N)=O)C(C)C)[C@@H](C)CC)[C@@H](C)O)[C@@H](C)CC)[C@@H](C)CC)C(C)C)C(C)C [Compound 48] (H-IVLSLDVPIGLLQILLEQEKQEKEKQQAK([AEEA-AEEA-γGlu-γGlu-C18 diacid])TNAQILAHV-NH2)	3.61
CCCCCCCCCCCCCCCC(=O)N[C@@H](CCC(=O)NCCCC[C@H](NC(=O)[C@H](CCCCN)NC(=O)[C@H](CCC(=O)O)NC(=O)[C@H](CCC(N)=O)NC(=O)[C@H](CCC(=O)O)NC(=O)[C@H](CC(C)C)NC(=O)[C@H](CC(C)C)NC(=O)[C@@H](NC(=O)[C@H](CCC(N)=O)NC(=O)[C@H](CC(C)C)NC(=O)[C@H](CC(C)C)NC(=O)CNC(=O)[C@@H](NC(=O)[C@@H]1CCCN1C(=O)[C@@H](NC(=O)[C@H](CC(=O)O)NC(=O)[C@H](CC(C)C)NC(=O)[C@H](CO)NC(=O)[C@H](CC(C)C)NC(=O)[C@@H](NC(=O)[C@@H](N)[C@@H](C)CC)C(C)C)C(C)C)[C@@H](C)CC)[C@@H](C)CC)C(=O)N[C@@H](CCC(=O)O)C(=O)N[C@@H](CCCCN)C(=O)N[C@@H](CCC(=O)O)C(=O)N[C@@H](CCCCN)C(=O)N[C@@H](CCC(N)=O)C(=O)N[C@@H](CCC(N)=O)C(=O)N[C@@H](C)C(=O)N[C@H](C(=O)N[C@H](C(=O)N[C@@H](CC(N)=O)C(=O)N[C@@H](C)C(=O)N[C@@H](CCCNC(=N)N)C(=O)N[C@H](C(=O)N[C@@H](CC(C)C)C(=O)N[C@@H](C)C(=O)N[C@@H](CCCNC(=N)N)C(=O)N[C@H](C(N)=O)C(C)C)[C@@H](C)CC)[C@@H](C)O)[C@@H](C)O)C(=O)O [Compound 26] (H-IVLSLDVPIGLLQILLEQEKK([γGlu-Palmitoyl])EKEKQQATTNARILARV-NH2)	15.6

Now those with a lower EC50, led by results:

EC50 [nM]	SMILES
1.63	CC[C@H](C)[C@H](NC)C(=O)N[C@H](C(=O)N[C@@H](CC(C)C)C(=O)N[C@@H](CO)C(=O)N[C@@H](CC(C)C)C(=O)N[C@@H](CC(=O)O)C(=O)N[C@H](C(=O)N1CCC[C@H]1C(=O)N[C@H](C(=O)NCC(=O)N[C@@H](CC(C)C)C(=O)N[C@@H](CC(C)C)C(=O)N[C@@H](CCC(N)=O)C(=O)N[C@H](C(=O)N[C@@H](CC(C)C)C(=O)N[C@@H](CC(C)C)C(=O)N[C@@H](CCC(=O)O)C(=O)N[C@@H](CCC(N)=O)C(=O)N[C@@H](CCC(=O)O)C(=O)N[C@@H](CCCCN)C(=O)N[C@@H](CCC(N)=O)C(=O)N[C@@H](CCC(=O)O)C(=O)N[C@@H](CCCCN)C(=O)N[C@@H](CCC(=O)O)C(=O)N[C@@H](CCCCN)C(=O)N[C@@H](CCC(N)=O)C(=O)N[C@@H](CCC(N)=O)C(=O)N[C@@H](C)C(=O)N[C@@H](CCCCNC(=O)CC[C@H](NC(=O)CC[C@H](NC(=O)CC[C@H](NC(=O)CC[C@H](NC(=O)CCCCCCCCCCCCCCCCCCC(=O)O)C(=O)O)C(=O)O)C(=O)O)C(=O)O)C(=O)N[C@H](C(=O)N[C@@H](CC(N)=O)C(=O)N[C@@H](C)C(=O)N[C@@H](CCC(N)=O)C(=O)N[C@H](C(=O)N[C@@H](CC(C)C)C(=O)N[C@@H](C)C(=O)N[C@@H](CCC(N)=O)C(=O)N[C@H](C(N)=O)C(C)C)[C@@H](C)CC)[C@@H](C)O)[C@@H](C)CC)[C@@H](C)CC)C(C)C)C(C)C [Compound 64] (H-[NMeI]VLSLDVPIGLLQILLEQEKQEKEKQQAK([γGlu-γGlu-γGlu-γGlu-C20 diacid])TNAQILAQV-NH2)
1.45	CC[C@H](C)[C@H](NC)C(=O)N[C@H](C(=O)N[C@H](C(=O)N[C@@H](CO)C(=O)N[C@@H](CC(C)C)C(=O)N[C@@H](CC(=O)O)C(=O)N[C@H](C(=O)N1CCC[C@H]1C(=O)N[C@H](C(=O)NCC(=O)N[C@@H](CC(C)C)C(=O)N[C@@H](CC(C)C)C(=O)N[C@@H](CCC(N)=O)C(=O)N[C@H](C(=O)N[C@@H](CC(C)C)C(=O)N[C@@H](CC(C)C)C(=O)N[C@@H](CCC(=O)O)C(=O)N[C@@H](CCC(N)=O)C(=O)N[C@@H](CCC(=O)O)C(=O)N[C@@H](CCCCN)C(=O)N[C@@H](CCC(N)=O)C(=O)N[C@@H](CCC(=O)O)C(=O)N[C@@H](CCCCN)C(=O)N[C@@H](CCC(=O)O)C(=O)N[C@@H](CCCCN)C(=O)N[C@@H](CCC(N)=O)C(=O)N[C@@H](CCC(N)=O)C(=O)N[C@@H](C)C(=O)N[C@@H](CCCCNC(=O)CC[C@H](NC(=O)COCCOCCNC(=O)COCCOCCNC(=O)CC[C@H](NC(=O)CC[C@H](NC(=O)CCCCCCCCCCCCCCCCCCC(=O)O)C(=O)O)C(=O)O)C(=O)O)C(=O)N[C@H](C(=O)N[C@@H](CC(N)=O)C(=O)N[C@@H](C)C(=O)N[C@@H](CCC(=O)O)C(=O)N[C@H](C(=O)N[C@@H](CC(C)C)C(=O)N[C@@H](C)C(=O)N[C@@H](CCC(N)=O)C(=O)N[C@H](C(N)=O)C(C)C)[C@@H](C)CC)[C@@H](C)O)[C@@H](C)CC)[C@@H](C)CC)C(C)C)[C@@H](C)O)C(C)C [Compound 66] (H-[NMeI]VTSLDVPIGLLQILLEQEKQEKEKQQAK([γGlu-AEEA-AEEA-γGlu-γGlu-C20 diacid])TNAEILAQV-NH2)
1.16	CC[C@H](C)[C@H](N)C(=O)N[C@H](C(=O)N[C@@H](CC(C)C)C(=O)N[C@@H](CO)C(=O)N[C@@H](CC(C)C)C(=O)N[C@@H](CC(=O)O)C(=O)N[C@H](C(=O)N1CCC[C@H]1C(=O)N[C@H](C(=O)NCC(=O)N[C@@H](CC(C)C)C(=O)N[C@@H](CC(C)C)C(=O)N[C@@H](CCC(N)=O)C(=O)N[C@H](C(=O)N[C@@H](CC(C)C)C(=O)N[C@@H](CC(C)C)C(=O)N[C@@H](CCC(=O)O)C(=O)N[C@@H](CCC(N)=O)C(=O)N[C@@H](CCC(=O)O)C(=O)N[C@@H](CCCCN)C(=O)N[C@@H](CCC(N)=O)C(=O)N[C@@H](CCC(=O)O)C(=O)N[C@@H](CCCCN)C(=O)N[C@@H](CCC(=O)O)C(=O)N[C@@H](CCCCN)C(=O)N[C@@H](CCC(N)=O)C(=O)N[C@@H](CCC(N)=O)C(=O)N[C@@H](C)C(=O)N[C@@H](CCCCNC(=O)COCCOCCNC(=O)COCCOCCNC(=O)CC[C@H](NC(=O)CC[C@H](NC(=O)CCCCCCCCCCCCCCCCC(=O)O)C(=O)O)C(=O)O)C(=O)N[C@H](C(=O)N[C@@H](CC(N)=O)C(=O)N[C@@H](C)C(=O)N[C@@H](CCC(N)=O)C(=O)N[C@H](C(=O)N[C@@H](CC(C)C)C(=O)N[C@@H](C)C(=O)N[C@@H](CCC(N)=O)C(=O)N[C@H](C(N)=O)C(C)C)[C@@H](C)CC)[C@@H](C)O)[C@@H](C)CC)[C@@H](C)CC)C(C)C)C(C)C [Compound 52] (H-IVLSLDVPIGLLQILLEQEKQEKEKQQAK([AEEA-AEEA-γGlu-γGlu-C18 diacid])TNAQILAQV-NH2)
